# According to patent publication US20040152769A1, “Modified carbamate-containing prodrugs and methods of synthesizing same” (priority 2002, published 2004):
# Read-outs that look alike come from different tables or passages of the source.
# Assays:
# [1] = Solubility of Dilantin®-PEG3 conjugate in acetonitrile and deionized water (HPLC); assay type: physicochemical
# Description: 5,5-diphenylhydrantoin and Dilantin®-PEG3 conjugate prodrug solutions were made in acetonitrile with concentrations of 1.12 mg/mL and 0.8 mg/mL, respectively.
# Solutions of 5,5-diphenylhydrantoin and Dilantin®-PEG3 conjugate were then made in deionized water at concentrations of 0.99 mg/mL and 0.93 mg/mL, respectively. These solutions were mixed well by vortexing. 1 mL aliquots were taken and spun by centrifuge at 5000 rpm for five minutes. The resultant supemant was taken and analyzed by HPLC for solution concentration. The concentration of 5,5-diphenylhydrantoin was 4 μg/mL. The concentration of Dilantin®-PEG3 conjugate was 160 μg/mL.
# [2] = pH 2.0 stability of prodrugs of the native compound (0.06M phosphate buffer, 37° C., 2 hours, RP-HPLC); conditions: for pH 2 Stability: pH 2.0 phosphate buffer, 37° C.; for % Area of Pro-drug / % Area NC: pH 2.0, 37° C., 2 hours, RP-HPLC; for % Area NC: native compound formed
# Description: The samples were incubated in a water bath at 37° C. for 2 hours. Each sample was then removed from the water bath and vortexed.
# [3] = Oral absorption in rats, parent compound in plasma by LC/MS/MS; conditions: rat, p.o., result in words; for Oral Absorption: first part of Table 2
# Description: 100 μL of plasma was extracted with 500 μL of acetonitrile, vortexed and centrifuged. The supernatant was removed, evaporated to dryness, and then reconstituted with 100 μL of 30% methanol. The reconstituted samples were then centrifuged to remove particulates. The supernatant was removed and transferred to HPLC vials for detection and quantitation of the parent compound by LC/MS/MS.
# [4] = Rat plasma stability of selected prodrugs (37° C., RP-HPLC); assay type: in vitro ADME; conditions: for % comp. 0′ / % comp. 60′ / % comp. 120′ / % comp. 240′ / % comp. 360′ / % comp. 480′: 37° C., peak area; for % comp. 0′: 0 minutes; for % comp. 60′: 60 minutes; for % comp. 120′: 120 minutes; for % comp. 240′: 240 minutes; for % comp. 360′: 360 minutes; for % comp. 480′: 480 minutes
# Description: Using 1 mg/mL stock solutions of a prodrug described in Example 6.8 above in acetonitrile, 990 μL of rat plasma was spiked with 10 μL of conjugate. The plasma spikes were incubated at 37° C. 100 μL of each sample at each time-point was removed and the reaction was quenched with 500 μL of acetonitrile. Each sample was vortexed and centrifuged immediately and the resultant supernatant was removed, discarding the pellet. The supernatant was concentrated and reconstituted with 100 μL of 30% acetonitrile. Prior to transferring samples to HPLC vials, the samples were centrifuged for 15 minutes at 14000 rpm at 2° C. to remove particulates. 10 μL of 10 μg/mL standard and 75 μL of reconstituted sample were injected for RP-HPLC analysis.
# The stability of the prodrugs was measured by analyzing samples at the following time-points: 0, 60, 120, 240, 360, and 480 minutes. Retention time, peak area, and UV spectrum were measured for each sample and standard. […] A Waters 2690 HPLC was used for sample analysis (column: Delta Pak C18 Guard Column, C18, 5 m, 2.1 mm×50 mm; Collected spectrum: 210-380 nm. Extracted chromatogram: 240 nm; Mobile Phase; 0.1% TFA in Water/0.1% TFA in acetonitrile; flow Rate: 0.5 mL/minute).
# [5] = Chemical hydrolysis of Dilantin®-conjugate (PEG-3) at a pH of about 2; assay type: physicochemical; conditions: 0.06M phosphate buffer pH 2.0, 37° C.
# Description: Aliquots of a stock solution of Dilantin®-PEG3 conjugate in acetonitrile were spiked into 0.06M phosphate buffer, pH 2.0 (2 μl stock solution in 998 μl buffer). The sample was incubated in a water bath at 37° C. At time points one hour apart, a portion of the sample was removed and submitted for immediate analysis by RP-HPLC.
# [6] = Stability of Dilantin®-PEG3 conjugate in rat plasma (spike controls, RP-HPLC); assay type: in vitro ADME
# Description: Also using a stock solution of Dilantin®-PEG3 conjugate in acetonitrile, the following spike controls were prepared in rat plasma: 1 μg/ml, 750 ng/ml, 500 ng/ml and 250 ng/ml. After vortexing, […] of acetonitrile was added. Each sample was centrifuged immediately and the resultant supernatant was removed and the pellet discarded. The supernatant was concentrated and reconstituted with […] of 30% acetonitrile. […] Samples were submitted for RP-HPLC anaylsis. […] Thus, near complete plasma hydrolysis of the conjugate may occur within 1 minute. Studies were repeated a second day to confirm results.
smiles,measurement,setting,value
"O=C1NC(=O)C(c2ccccc2)(c2ccccc2)N1 [5,5-diphenylhydrantoin, reference compound]",solubility in acetonitrile,[1],100%
same,solubility,"[1]; water, thermodynamic from solid",4 µg/mL
CCOC(=O)CCOCCOCCOC [Compound 1],pH 2 Stability,[2],None
CCOCCOCCOCCC(=O)OCC [Compound 2],pH 2 Stability,[2],None
CCOC(=O)CCOCCOCCOCCOCCOCCOCCOCCOCCOC [Compound 3],pH 2 Stability,[2],None
CCOC(=O)COCCOCCOC [Compound 4],pH 2 Stability,[2],None
CCOC(=O)OCCOCCOCCOC [Compound 5],pH 2 Stability,[2],None
COCCOCCOCCOC(=O)N(C(=O)NCCCN1CCC(c2cccc(OC)c2)CC1)c1cccc(C2C(C(=O)OC)=C(C)NC(C)=C2C(=O)OC)c1 [Compound 6],pH 2 Stability,[2],>2 h
same,Oral Absorption,[3],Not Detected
COCCOCCOCCOCCOCCOCCOCCOCCOC(=O)N(C(=O)NCCCN1CCC(c2cccc(OC)c2)CC1)c1cccc(C2C(C(=O)OC)=C(C)NC(C)=C2C(=O)OC)c1 [Compound 8],pH 2 Stability,[2],>2 h
same,Oral Absorption,[3],Not Detected
COC(=O)C1=C(C)NC(C)=C(C(=O)OC)C1c1cccc(N(C(=O)NCCCN2CCC(c3cccc(OC)c3)CC2)C(=O)OC)c1.Cl [Compound 11],pH 2 Stability,[2],>2 h
COCCOCCOCCOC(=O)N(C(=O)NCCCN1CCC(c2cccc(OC)c2)CC1)c1cccc(C2C(C(=O)OC)=C(C)NC(C)=C2C(=O)OC)c1.Cl [Compound 13],% comp. 0′,[4]; rat plasma,99.0%
same,% comp. 60′,[4]; rat plasma,98.0%
same,% comp. 120′,[4]; rat plasma,98.0%
same,% comp. 240′,[4]; rat plasma,97.0%
same,% comp. 360′,[4]; rat plasma,96.0%
same,% comp. 480′,[4]; rat plasma,95.0%
same,% Area of Pro-drug,[2],100%
same,% Area NC,[2],0%
same,pH 2 Stability,[2],>2 h
CCOC(=O)N(C(=O)NCCCN1CCC(c2cccc(OC)c2)CC1)c1cccc(C2C(C(=O)OC)=C(C)NC(C)=C2C(=O)OC)c1.Cl [Compound 14],% comp. 0′,[4]; rat plasma,98.0%
same,% comp. 60′,[4]; rat plasma,98.0%
same,% comp. 120′,[4]; rat plasma,97.5%
same,% comp. 240′,[4]; rat plasma,96.5%
same,% comp. 360′,[4]; rat plasma,96.0%
same,% comp. 480′,[4]; rat plasma,95.0%
same,pH 2 Stability,[2],>2 h
COC(=O)C1=C(C)NC(C)=C(C(=O)OC)C1c1cccc(N(C(=O)NCCCN2CCC(c3cccc(OC)c3)CC2)C(=O)OC(CO)CO)c1.Cl [Compound 16],% comp. 0′,[4]; rat plasma,0%
same,% comp. 60′,[4]; rat plasma,0%
same,% comp. 120′,[4]; rat plasma,0%
same,% comp. 240′,[4]; rat plasma,1%
same,% comp. 360′,[4]; rat plasma,1%
same,% comp. 480′,[4]; rat plasma,1%
same,stability in rat plasma,"[4]; rat plasma, result in words",unstable
same,prodrug converted to the native compound,[4]; within 30 seconds of being introduced to rat plasma,~100%
same,Oral Absorption (Relative AUCs),[3]; second part of Table 2,Minimal
COCCOCCOCCOCCOC(=O)N(C(=O)NCCCN1CCC(c2cccc(OC)c2)CC1)c1cccc(C2C(C(=O)OC)=C(C)NC(C)=C2C(=O)OC)c1.Cl [Compound 17],% comp. 0′,[4]; rat plasma,99.7%
same,% comp. 60′,[4]; rat plasma,99.0%
same,% comp. 120′,[4]; rat plasma,98.5%
same,% comp. 240′,[4]; rat plasma,98.0%
same,% comp. 360′,[4]; rat plasma,97.0%
same,% comp. 480′,[4]; rat plasma,96.0%
same,% Area of Pro-drug,[2],100%
same,% Area NC,[2],0%
same,pH 2 Stability,[2],>2 h
COCCOCCOCCOCCOCCOCCOCCOCCOC(=O)N(C(=O)NCCCN1CCC(c2cccc(OC)c2)CC1)c1cccc(C2C(C(=O)OC)=C(C)NC(C)=C2C(=O)OC)c1.Cl [Compound 19],% comp. 0′,[4]; rat plasma,97.0%
same,% comp. 60′,[4]; rat plasma,97.0%
same,% comp. 120′,[4]; rat plasma,96.5%
same,% comp. 240′,[4]; rat plasma,96.0%
same,% comp. 360′,[4]; rat plasma,95.3%
same,% comp. 480′,[4]; rat plasma,94.0%
same,pH 2 Stability,[2],>2 h
COCCOCCOC(=O)N(C(=O)NCCCN1CCC(c2cccc(OC)c2)CC1)c1cccc(C2C(C(=O)OC)=C(C)NC(C)=C2C(=O)OC)c1.Cl [Compound 21],% Area of Pro-drug,[2],100%
same,% Area NC,[2],0%
same,pH 2 Stability,[2],>2 h
COCCOC(=O)N(C(=O)NCCCN1CCC(c2cccc(OC)c2)CC1)c1cccc(C2C(C(=O)OC)=C(C)NC(C)=C2C(=O)OC)c1.Cl [Compound 22],% Area of Pro-drug,[2],100%
same,% Area NC,[2],0%
same,pH 2 Stability,[2],>2 h
COCCOCCOCCOC(=O)N1C(=O)NC(c2ccccc2)(c2ccccc2)C1=O [Dilantin®-PEG3 conjugate],"Dilantin ® -PEG3 (Remaining), %",[5]; time 0 hours,100%
same,"Dilantin ® -PEG3 (Remaining), %",[5]; time 2 hours,96.79%
same,"Dilantin ® -PEG3 (Remaining), %",[5]; time 3 hours,94.99%
same,time to near complete plasma hydrolysis of the conjugate,[6]; rat plasma,≤ 1 min
same,species found in extracted rat plasma samples,"[6]; rat plasma spiked at 1 μg/ml, 750, 500 and 250 ng/ml, RP-HPLC",only the presence of phenyloin
same,solubility in acetonitrile,"[1]; acetonitrile, 1.12 mg/mL (5,5-diphenylhydrantoin) and 0.8 mg/mL (conjugate)",100%
same,solubility in water compared with native drug,[1]; deionized water,more soluble in water than the native drug
same,concentration in supernatant (solubility in water),"[1]; deionized water, made at 0.99 mg/mL and 0.93 mg/mL, centrifuged, HPLC",160 µg/mL
"COC(=O)C1=C(C)NC(C)=C(C(=O)OC)C1c1cccc(NC(=O)NCCCN2CCC(c3cccc(OC)c3)CC2)c1 [Native drug, 1,4-Dihydro-[3-[[[[3-[4-(3-methoxyphenyl)-1-piperidinyl]propyl]amino]carbonyl]amino]phenyl]-2,6-dimethyl-3,5-pyridinedicarboxylic acid, dimethyl ester]",pH 2 Stability,,>2 h
